Measurements published in US12319681B2, “Tripartite androgen receptor eliminators, methods and uses thereof” (SPG Therapeutics, Inc., priority 2017, dated 2025).

Legend:
[1] = target: T1, androgen receptor (AR) (Homo sapiens, UniProt P10275); assay: Keratinocyte AR luciferase reporter gene assay (Example 10); assay type: cell-based; conditions: 24 h, read-out: Gene Activity Reduction
T1 construct: human keratinocytes transfected with an AR luciferase reporter gene; endogenous in cells; host or cells: normal human adult primary epidermal keratinocytes (ATCC PCS-200-011)
T1 sequence (P10275 1-920): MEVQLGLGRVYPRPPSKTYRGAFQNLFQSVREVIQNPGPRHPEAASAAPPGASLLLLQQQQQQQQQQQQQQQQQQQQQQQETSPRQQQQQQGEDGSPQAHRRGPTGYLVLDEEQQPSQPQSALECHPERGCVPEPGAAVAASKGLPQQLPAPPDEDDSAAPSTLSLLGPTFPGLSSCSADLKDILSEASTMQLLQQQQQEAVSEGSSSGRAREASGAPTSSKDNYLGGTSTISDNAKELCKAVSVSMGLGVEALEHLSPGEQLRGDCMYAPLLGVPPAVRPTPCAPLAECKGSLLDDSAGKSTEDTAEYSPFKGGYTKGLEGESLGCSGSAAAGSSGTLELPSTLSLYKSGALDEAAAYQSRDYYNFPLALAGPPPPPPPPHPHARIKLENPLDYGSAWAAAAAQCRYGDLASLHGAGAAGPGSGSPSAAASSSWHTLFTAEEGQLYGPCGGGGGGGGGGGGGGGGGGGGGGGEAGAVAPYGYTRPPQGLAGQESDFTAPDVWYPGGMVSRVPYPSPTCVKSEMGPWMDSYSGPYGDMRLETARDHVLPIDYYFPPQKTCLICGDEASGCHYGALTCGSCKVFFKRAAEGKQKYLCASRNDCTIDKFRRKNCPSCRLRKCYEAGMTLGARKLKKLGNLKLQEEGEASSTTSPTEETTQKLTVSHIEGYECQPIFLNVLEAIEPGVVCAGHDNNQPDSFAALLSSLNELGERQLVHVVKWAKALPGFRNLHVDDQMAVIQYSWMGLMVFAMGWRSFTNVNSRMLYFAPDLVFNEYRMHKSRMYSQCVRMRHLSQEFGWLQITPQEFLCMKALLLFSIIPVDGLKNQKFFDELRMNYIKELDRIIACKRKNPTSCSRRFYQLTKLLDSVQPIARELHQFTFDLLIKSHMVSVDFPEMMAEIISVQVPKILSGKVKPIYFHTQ
Method: (§1) Each ARE tested was prepared in DMSO. […] Ethanol concentrations in media never exceeded 0.1%.
(§2) To assess ARE-mediated inhibition, an AR luciferase assay was performed. After washing cells with 1×PBS, 20 μL lysis buffer (25 mM Tris/phosphate, 4 mM EGTA, 1% Triton, 10% glycerol, 2 mM DTT) was added per well, incubated for 5 minutes with gentle shaking and store at −80° C. On the day of assay, the plates were thawed to ambient temperature and 80 μL of assay buffer (25 mM glycylglycine, 15 mM MgCl2. 5 mM ATP, 0.1 mg/ml BSA) was added to each well. Plates are then processed on a microplate reader (POLARstar Omega) by injecting 100 μL of 1 mM D-luciferin per well, followed by chemiluminescence measurement of 3 seconds at onset of injection. Luciferase activity was determined, measured, and normalized to Relative Light Units (RLU). AR reporter gene activity reduction values were calculated as follows: AR reporter gene activity=1−(average signal (treatment group)/average signal (treatment group without drug).

[2] = target: T1, androgen receptor (AR); assay: Keratinocyte AR protein level ELISA (Example 10); assay type: cell-based; conditions: 24 h, read-out: AR Reduction
Method: as §1
To assess levels of AR, an ELISA was performed.

[3] = target: T1, androgen receptor (AR); assay: Keratinocyte AR Reporter Gene Assay, 24 and 72 hours continuous exposure (Example 12); assay type: cell-based; conditions: keratinocytes
Method: as §2
This example illustrates how to determine the inhibitory activity of an ARE disclosed herein using a cell-based androgen receptor transcriptional reporter assay using primary human keratinocytes.
Results were analyzed for IC50 and IC90 values in GraphPad Prism using a four-parameter logistic curve equation. Bottom constraints were set to 1 (level of uninduced control).

[4] = in vitro; conditions: human
Method: For the Keratinocyte assay, normal Human Adult Primary Epidermal Keratinocyte cell line (ATCC PCS-200-011) was maintained in EPIUFE® Medium, with 60 μM calcium (Thermo MEPISOOCA) supplemented with Human Keratinocyte Growth Supplement, 100 U/mL penicillin, and 100 μg/mL streptomycin at 37° C. with 5% C02. For experiments, cells were seeded at 70% confluence per well in 100 μL of medium in 96-well plates. Reverse transfection was done on the cells using Lipofectamine 3000 (Life Technologies) with plasmids according to manufacturer's instructions. Briefly, 0.3 μL transfection reagent per 100 ng DNA were incubated with P3000 reagent and Opti-Mem prior to addition of cells. After 16 hours, medium was removed and replaced with dosing medium.
Each ARE tested was prepared in DMSO. Dosing medium was prepared at the time of treatment by serial diluting stock solution into medium. Ethanol concentrations in media never exceeded 0.1%. […] Negative control wells contained 100 L medium/well with 1 μL of ethanol/mL of medium and an appropriate amount of DMSO. […] Cells were incubated 72 hours at 37° C. without CO2.

`CC12CCC(=O)C=C1C[C@@H](SC(=O)CC13CC4CC(CC(C4)C1)C3)C1C2CCC2(C)C1CC[C@@]21CCC(=O)O1` (some centres unmarked) [SPG-003] gave an inhibition at 0.1 µM [1] of 21%, an inhibition at 1 µM [1] of 31% and an inhibition at 3 µM [1] of 50%. The inhibition at 10 µM [1] was 93%, the inhibition at 0.1 µM [2] was 6% and the inhibition at 1 µM [2] was 19%. It also gave an inhibition at 3 µM [2] of 26%, an inhibition at 10 µM [2] of 65% and an IC50 ([3]; 24-hr Treatment) of 3.68 µM. The IC90 ([3]; 24-hr Treatment) was 6.96 µM, the “Maximum Inhibition” value ([3]; 24-hr Treatment) was 91% and the IC50 ([3]; 24-hr treatment) was 3.7 µM. The IC90 ([3]; 24-hr treatment) was 7 µM, the IC50 ([3]; 72-hour treatment) was 2.5 µM and the IC90 ([3]; 72-hour treatment) was 5.7 µM. For the same compound, the IC50 ([3]; 72-hr Treatment) was 2.57 µM, the IC90 ([3]; 72-hr Treatment) was 5.68 µM and the “Maximum Inhibition” value ([3]; 72-hr Treatment) was 93%. The “inhibition of AR reporter gene activity (in words)” value ([3]; 24 and 72 hours) was “dose-dependent inhibition” and the IC50 at 72 h [4] was roughly 50 µM.
